Results taken from US9590187B2, “Substituent-eliminable diketopyrrolopyrrole derivative, organic semiconductor material precursor solution, organic semiconductor material, and organic semiconductor material film” (RICOH COMPANY, LTD., priority 2013, dated 2017).

Assays:
[1] = Evaluation of solubility in organic solvents (saturated solution after reflux, cooling to room temperature, filtration, drying); assay type: physicochemical; conditions: reflux 10 minutes, cooled to room temperature, stand 16 hours, 0.2-μm PTFE filter
Procedure: Add each of the compounds obtained in the above Examples 1-6 to each of toluene, THF, and chloroform until it gets undissolved. Agitate each solution for 10 minutes under solvent reflux, then cool it to room temperature, further agitate it for 1 hour, and allow it to stand for 16 hours. Filter the supernatant liquid with a 0.2-μm PTFE filter to obtain a saturated solution. Dry the solution under reduced pressures to calculate solubility of each compound against each solvent. Evaluation criteria are as follows.
A: Solubility is 0.5% by weight or more.
B: Solubility is 0.05% by weight or more and less than 0.5% by weight.
C: Solubility is 0.005% by weight or more and less than 0.05% by weight.
D: Solubility is less than 0.005% by weight.

[2] = Thermogravimetric measurement of the elimination reaction (EXSTAR 6200, nitrogen atmosphere); assay type: physicochemical; conditions: observed within 190 to 210° C.
Procedure: Put the above-prepared substituent-eliminable derivative No. 6 (5 mg, […]) in an aluminum pan and heat it to 300° C. at a rate of 10° C./min with a thermal analysis instrument (EXSTAR 6200 from Seiko Instruments Inc.) under nitrogen atmosphere. Thus, a dark purple solid (3.8 mg) is obtained. m/z=704.1 (M+H).
Put the above-prepared substituent-eliminable derivative No. 9 (5 mg, […] in an aluminum pan and heat it to 250° C. at a rate of 20° C./min with a thermal analysis instrument (EXSTAR 6200 from Seiko Instruments Inc.) under nitrogen atmosphere. Thus, a dark purple solid (3.8 mg) is obtained. m/z=704.1 (M+H). The thermogravimetric measurement result is shown in FIG. 3.
Repeat the procedures in Example 4 except for replacing the substituent-eliminable derivative No. 6 with No. 16 (5 mg, 4.6 μmol). Thus, a dark purple specific compound (4.2 mg) is obtained. m/z=872.2 (M+H).

[3] = heated to 300° C. at 10° C./min

| SMILES | Solubility in THF [1] | Solubility in Chloroform [1] | Solubility in Toluene [1] | Decrease in weight (thermogravimetric) [2, 3] [%] | Decrease in weight (thermogravimetric) ([2]; heated to 250° C. at 20° C./min) [%] |
| --- | --- | --- | --- | --- | --- |
| CCCCC(CC)CN1C(=O)C2=C(c3ccc(-c4ccc(O)cc4)s3)N(CC(CC)CCCC)C(=O)C2=C1c1ccc(-c2ccc(O)cc2)s1 (stereo not drawn) [Specific Compound No. 6] | D (Solubility is less than 0.005% by weight.) | D (Solubility is less than 0.005% by weight.) | D (Solubility is less than 0.005% by weight.) |  |  |
| CCCCC(CC)CN1C(=O)C2=C(c3ccc(-c4cccc(O)c4)s3)N(CC(CC)CCCC)C(=O)C2=C1c1ccc(-c2cccc(O)c2)s1 (stereo not drawn) [Specific Compound No. 9] | D (Solubility is less than 0.005% by weight.) | D (Solubility is less than 0.005% by weight.) | D (Solubility is less than 0.005% by weight.) |  |  |
| CCCCC(CC)CN1C(=O)C2=C(c3ccc(-c4ccc(-c5cccc(O)c5)s4)s3)N(CC(CC)CCCC)C(=O)C2=C1c1ccc(-c2ccc(-c3cccc(O)c3)s2)s1 (stereo not drawn) [Specific Compound No. 16] | D (Solubility is less than 0.005% by weight.) | D (Solubility is less than 0.005% by weight.) | D (Solubility is less than 0.005% by weight.) |  |  |
| CCCCC(CC)CN1C(=O)C2=C(c3ccc(-c4ccc(OC(=O)OC(C)(C)C)cc4)s3)N(CC(CC)CCCC)C(=O)C2=C1c1ccc(-c2ccc(OC(=O)OC(C)(C)C)cc2)s1 (stereo not drawn) [Substituent-eliminable Derivative No. 6] | A (Solubility is 0.5% by weight or more.) | A (Solubility is 0.5% by weight or more.) | B (Solubility is 0.05% by weight or more and less than 0.5% by weight.) | 21.5 |  |
| CCCCC(CC)CN1C(=O)C2=C(c3ccc(-c4cccc(OC(=O)OC(C)(C)C)c4)s3)N(CC(CC)CCCC)C(=O)C2=C1c1ccc(-c2cccc(OC(=O)OC(C)(C)C)c2)s1 (stereo not drawn) [Substituent-eliminable Derivative No. 9] | A (Solubility is 0.5% by weight or more.) | A (Solubility is 0.5% by weight or more.) | A (Solubility is 0.5% by weight or more.) |  | 21.2 |
| CCCCC(CC)CN1C(=O)C2=C(c3ccc(-c4ccc(-c5cccc(OC(=O)OC(C)(C)C)c5)s4)s3)N(CC(CC)CCCC)C(=O)C2=C1c1ccc(-c2ccc(-c3cccc(OC(=O)OC(C)(C)C)c3)s2)s1 (stereo not drawn) [Substituent-eliminable Derivative No. 16] | A (Solubility is 0.5% by weight or more.) | A (Solubility is 0.5% by weight or more.) | A (Solubility is 0.5% by weight or more.) | 18.5 |  |
